The results in this text go back to ChEMBL document CHEMBL1129285, “Conformationally constrained analogues of diacylglycerol. 10. Ultrapotent protein kinase C ligands based on a racemic 5-disubstituted tetrahydro-2-furanone template” (J Med Chem, 1996).

As usually defined, the Ki is the equilibrium dissociation constant of an inhibitor or competing ligand from its target. A higher Ki goes with lower affinity.

Each structure is given as a SMILES string.

This experiment addresses Protein kinase C alpha type (Homo sapiens, UniProt P17252). Nature of the experiment: Displacement of [H-20]phorbol12,13-dibutyrate (PDBU) from Protein kinase C alpha.

As for `CCCCCCCCCCCCC/C=C1/CC(CO)(COC(C)=O)OC1=O` (configuration not stated), the inhibition constant (Ki) turned out to be 34 nM. Molecule `CCCCCCCCCCCCC/C=C1\CC(CO)(COC(C)=O)OC1=O` (configuration not stated) displayed a Ki of 78 nM.
